For experiment [1], the system named is endometrium of the uterus. The experiment can be described thus: Decidualization assay in pseudopregnant mice, oil-induced uterine weight gain. Format: in vivo. The conditions noted are these: 0.1 mg. On the procedure: A successful pregnancy requires not only the effective collision and fusion of egg and spermatozoon, but also the provision of a receptive and supportive uterus. The preparation of the endometrium of the uterus for implantation (i.e. decidualization) starts well before the blastocyst arrives in the uterus.
Psuedopregnant mice (i.e. mated with vasectomized males) were used to establish the assay system. […] At 16 hours of Day 4, a small volume of sesame oil (10 μl) was introduced to the lumen of the right uterine horn to serve as a decidual stimulus. The left horn was left undisturbed to serve as an internal control. Autopsies were performed on Day 7 to assess uterine wet weight gains in the stimulated versus non-stimulated uterine horns.
Each of these compounds was intraluminally administered in an appropriate dosage on Day 4 along with the sesame oil administration.

Experiment [2] relates to progesterone receptor (T47D cells). The experiment can be described thus: Antagonist assay in T47D (human breast cancer) cells (Tables 1 and 2). It counts as cell-based.
The subject of experiment [3] is glucocorticoid, mineralocorticoid, androgen, estrogen, and retinoic acid receptors; orphan receptors. The experiment in a line: Cross-reactivity with other known intracellular receptor classes. Format: cell-based. How it is done: Compound SO-9 was also tested with orphan receptors (which are receptors whose natural ligand is unknown).
The 3R and 3S diastereomeric acetates of cyclocymopol monomethyl ether were also individually tested for cross reactivity with the other known intracellular receptor classes. […] No antagonist activity was detected with either compound.

The values below come from patent US5808139A (Ligand Pharmaceuticals Incorporated, priority 1994, dated 1998).

The structures appear in SMILES notation.

As usually defined, the IC50 is the concentration that gives 50% inhibition.

Consider `CC#C[C@]1(O)CC[C@H]2[C@@H]3CCC4=CC(=O)CCC4=C3[C@@H](c3ccc(N(C)C)cc3)C[C@@]21C` [RU-486, reference compound], for which, in experiment [1], the “Blocking of decidualization weight gain (in words)” value is “completely blocked this decidualization weight gain”. For the same compound, the “Net Uterine Weight Gain” value in experiment [1] (intraluminal, autopsy Day 7, oil alone control 334.7 +/- 41.0) is 9.53 ± 3.51 mg.
On to `C=C1CC[C@@H](Br)C(C)(C)[C@@H]1Cc1cc(OC)c(Br)cc1O` [SO-53, (3R)-cyclocymopol monomethyl ether], for which, in experiment [2] (antagonist activity, relative to RU-486), the “Efficacy (% maximal response relative to RU-486), T47D cells” value was 85%. For the same compound, the IC50 in experiment [2] (concentration required to reduce the maximal response by 50%, read-out: Potency (IC50), T47D cells) stood at 385 nM. Further, the “Cross-reactivity with other intracellular receptors” value in experiment [3] was “not to cross-react with any of the other receptors”.
